Assay results as given in patent US8841077B2, “Biomarkers for amyotrophic lateral sclerosis and methods using the same” (Massachusetts General Hospital, priority 2006, dated 2014).

Legend:
[1] = Caffeine and paraxanthine in plasma of ALS patients vs peripheral neuropathy or myopathy patients (Examples 6, 7; Tables 12, 13); assay type: in vivo, human
Protocol: All research participants provided informed consent. A board-certified neurologist reviewed and confirmed diagnosis for all participants. Data on gender, age, weight, and medications was collected. For participants with ALS, date and site of symptom onset, date of diagnosis, and family history of ALS was recorded.

[2] = Metabolomics demographic study of plasma from 270 healthy volunteers of various ages (Table 11); assay type: in vivo, human; conditions: normal adults
[3] = Caffeine and caffeine metabolites in plasma of ALS patients vs healthy control subjects (Examples 4, 5; Tables 9, 10)
Protocol: Metabolomic analysis of two independent ALS studies was carried out to assess the changes of metabolite levels in plasma from ALS patients relative to healthy control subjects. Thirty-one healthy control volunteers and 31 participants with ALS enrolled in Study 1. Study 2 was comprised of ninety-nine participants with ALS and 94 healthy volunteers. All research participants provided informed consent. A board-certified neurologist reviewed and confirmed diagnosis for all participants. Data on gender, age, weight, and medications was collected. For participants with ALS, date and site of symptom onset, date of diagnosis, and family history of ALS was recorded. Healthy control subjects were defined by the absence of a known neurological disorder.
A measure of caffeine clearance rate is reflected in the ratio of caffeine metabolites to caffeine.

SMILES	Paraxanthine/Caffeine Ratio ([1]; ALS)	Paraxanthine/Caffeine Ratio ([1]; Myopathy)	Paraxanthine/Caffeine Ratio ([1]; PN)	Paraxanthine/Caffeine (P/C) Ratio ([2]; age 25-35)	Paraxanthine/Caffeine (P/C) Ratio ([2]; age 36-50)	Paraxanthine/Caffeine (P/C) Ratio ([2]; age 51-65)	Theophylline/Caffeine (T/C) Ratio ([3]; ALS subjects)	Theophylline/Caffeine (T/C) Ratio ([3]; Control subjects)
Cn1c(=O)[nH]c2ncn(C)c2c1=O [Paraxanthine, 1-7-dimethylxanthine]	0.7389	0.4900	0.0294	1.1467	1.0358	0.7105	–	–
Cn1c(=O)c2[nH]cnc2n(C)c1=O [Theophylline]	–	–	–	–	–	–	1.3684	0.8857
